According to ChEMBL document CHEMBL1143089, “Structure-based design and subsequent optimization of 2-tolyl-(1,2,3-triazol-1-yl-4-carboxamide) inhibitors of p38 MAP kinase” (Bioorg Med Chem Lett, 2008):
≈ marks a conversion by molar mass, not a printed value. Calls of active or inactive are those of the source. The calls are words filed in the database; no cut-off is given here.

Experiments:
Blood = assay: Inhibition of LPS-stimulated TNFalpha production in human whole blood; assay type: functional, tissue-based
[1] = Binding affinity to mitogen-activated protein kinase p38 by thermal denaturation assay
THP-1 = assay: Inhibition of LPS-stimulated TNFalpha production in human THP1 cells; assay type: functional, cell-based
[2] = biological target: Casein kinase I isoform alpha (Homo sapiens) (UniProt P48729); assay: Activity at CK1 at 3 uM
[3] = Inhibition of JNK2a
[4] = biological target: Tyrosine-protein kinase TXK (Homo sapiens) (UniProt P42681); assay: Activity at TXK at 10 uM
Chain of Tyrosine-protein kinase TXK (Homo sapiens) (P42681 whole entry): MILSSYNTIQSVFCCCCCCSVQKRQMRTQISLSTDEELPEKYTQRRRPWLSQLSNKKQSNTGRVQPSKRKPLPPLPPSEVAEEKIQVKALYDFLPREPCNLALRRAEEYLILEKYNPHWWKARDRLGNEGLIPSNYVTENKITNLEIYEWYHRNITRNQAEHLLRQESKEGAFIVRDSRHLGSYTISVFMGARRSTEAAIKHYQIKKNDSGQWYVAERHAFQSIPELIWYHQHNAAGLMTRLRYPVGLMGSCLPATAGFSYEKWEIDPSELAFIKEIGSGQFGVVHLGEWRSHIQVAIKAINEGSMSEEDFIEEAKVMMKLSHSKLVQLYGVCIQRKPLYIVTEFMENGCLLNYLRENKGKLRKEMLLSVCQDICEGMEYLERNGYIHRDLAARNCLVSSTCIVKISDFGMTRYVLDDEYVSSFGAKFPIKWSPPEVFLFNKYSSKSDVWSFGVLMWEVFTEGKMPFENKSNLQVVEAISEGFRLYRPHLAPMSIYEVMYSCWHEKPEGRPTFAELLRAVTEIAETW

[5] = biological target: Rho-associated protein kinase 2 (Homo sapiens) (UniProt O75116); assay: Activity at ROCK2 at 3 uM
[6] = Activity at PKBdeltaPH at 3 uM
[7] = Apparent permeability across human Caco-2 cells; assay type: ADME, cell-based
[8] = biological target: Tyrosine-protein kinase ITK/TSK (Homo sapiens) (UniProt Q08881); assay: Activity at Itk at 10 uM
Homo sapiens = species on record: Homo sapiens; assay: Protein binding in human plasma; settings: read-out: PPB (converted)
[9] = biological target: Tyrosine-protein kinase Lyn (Homo sapiens) (UniProt P07948); assay: Activity at Lyn at 10 uM
[10] = biological target: Insulin-like growth factor 1 receptor (Homo sapiens) (UniProt P08069); assay: Activity at IGF1R at 10 uM
[11] = biological target: 3-phosphoinositide-dependent protein kinase 1 (Homo sapiens) (UniProt O15530); assay: Activity at PDK1 at 3 uM
[12] = biological target: Serine/threonine-protein kinase Nek6 (Homo sapiens) (UniProt Q9HC98); assay: Activity at NEK6 at 3 uM
[13] = biological target: Ephrin type-A receptor 3 (Homo sapiens) (UniProt P29320); assay: Activity at Hek at 10 uM; settings: HEK293
[14] = Activity at AMPK at 3 uM
[15] = biological target: Ribosomal protein S6 kinase alpha-5 (Homo sapiens) (UniProt O75582); assay: Activity at MSK1 at 3 uM
[16] = biological target: Epidermal growth factor receptor (Homo sapiens) (UniProt P00533); assay: Activity at EGFR at 10 uM
[17] = biological target: Ribosomal protein S6 kinase alpha-1 (Homo sapiens) (UniProt Q15418); assay: Activity at MAPKAP-K1a at 3 uM
Chain of Ribosomal protein S6 kinase alpha-1 (Homo sapiens) (Q15418 whole entry): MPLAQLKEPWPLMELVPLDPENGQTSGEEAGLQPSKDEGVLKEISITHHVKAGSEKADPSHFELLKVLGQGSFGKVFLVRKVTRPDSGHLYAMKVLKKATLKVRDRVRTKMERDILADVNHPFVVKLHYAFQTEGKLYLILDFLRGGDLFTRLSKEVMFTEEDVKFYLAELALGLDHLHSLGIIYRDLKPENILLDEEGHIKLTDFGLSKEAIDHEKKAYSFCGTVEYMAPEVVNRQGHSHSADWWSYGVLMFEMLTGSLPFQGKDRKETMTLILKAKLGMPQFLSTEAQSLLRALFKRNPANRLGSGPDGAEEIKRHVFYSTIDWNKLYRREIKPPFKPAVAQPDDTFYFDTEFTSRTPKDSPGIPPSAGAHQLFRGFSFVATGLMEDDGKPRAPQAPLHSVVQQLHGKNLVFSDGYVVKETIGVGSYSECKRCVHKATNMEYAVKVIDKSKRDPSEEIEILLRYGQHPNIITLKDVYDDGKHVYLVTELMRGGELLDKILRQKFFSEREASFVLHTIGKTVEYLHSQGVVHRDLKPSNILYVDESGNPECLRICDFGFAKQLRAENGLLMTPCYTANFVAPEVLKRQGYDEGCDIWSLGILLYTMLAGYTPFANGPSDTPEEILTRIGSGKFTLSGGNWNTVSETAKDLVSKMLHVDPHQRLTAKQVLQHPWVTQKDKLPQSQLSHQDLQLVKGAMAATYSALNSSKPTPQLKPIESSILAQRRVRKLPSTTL

[18] = biological target: Mitogen-activated protein kinase 13 (Homo sapiens) (UniProt O15264); assay: Activity at MAPK p38delta at 3 uM
Chain of Mitogen-activated protein kinase 13 (Homo sapiens) (O15264 whole entry): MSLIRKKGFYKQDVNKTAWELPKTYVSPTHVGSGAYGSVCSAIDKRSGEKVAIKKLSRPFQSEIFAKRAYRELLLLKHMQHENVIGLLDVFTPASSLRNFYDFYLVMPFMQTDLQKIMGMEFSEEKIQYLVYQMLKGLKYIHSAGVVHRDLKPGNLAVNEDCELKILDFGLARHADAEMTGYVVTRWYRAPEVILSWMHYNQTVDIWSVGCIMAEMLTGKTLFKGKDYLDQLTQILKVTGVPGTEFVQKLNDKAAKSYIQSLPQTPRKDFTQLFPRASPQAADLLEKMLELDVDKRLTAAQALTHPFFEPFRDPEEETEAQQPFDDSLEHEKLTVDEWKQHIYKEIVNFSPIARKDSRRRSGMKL

[19] = biological target: Serine/threonine-protein kinase Sgk1 (Homo sapiens) (UniProt O00141); assay: Activity at SGK at 3 uM
[20] = biological target: Mitogen-activated protein kinase 14 (Homo sapiens) (UniProt Q16539); assay: Activity at MAPK p38-alpha at 3 uM
[21] = biological target: Tyrosine-protein kinase SYK (Homo sapiens) (UniProt P43405); assay: Activity at Syk at 10 uM
[22] = biological target: Ribosomal protein S6 kinase beta-1 (Homo sapiens) (UniProt P23443); assay: Activity at S6K1 at 3 uM
Chain of Ribosomal protein S6 kinase beta-1 (Homo sapiens) (P23443 whole entry, looked up): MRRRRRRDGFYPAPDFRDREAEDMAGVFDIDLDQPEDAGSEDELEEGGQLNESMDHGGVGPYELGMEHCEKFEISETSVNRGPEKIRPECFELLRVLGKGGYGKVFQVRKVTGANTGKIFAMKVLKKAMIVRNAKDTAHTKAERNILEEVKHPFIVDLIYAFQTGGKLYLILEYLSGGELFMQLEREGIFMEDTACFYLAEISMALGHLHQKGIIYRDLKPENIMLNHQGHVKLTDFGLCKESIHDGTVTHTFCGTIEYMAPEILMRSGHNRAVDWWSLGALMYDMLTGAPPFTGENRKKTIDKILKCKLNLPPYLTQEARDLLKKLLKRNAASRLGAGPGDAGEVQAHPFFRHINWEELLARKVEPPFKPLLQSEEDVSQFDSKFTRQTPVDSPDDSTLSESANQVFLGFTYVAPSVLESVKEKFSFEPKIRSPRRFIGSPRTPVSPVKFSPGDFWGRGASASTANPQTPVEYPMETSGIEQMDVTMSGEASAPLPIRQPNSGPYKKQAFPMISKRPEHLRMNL

[23] = biological target: Casein kinase II subunit alpha (Homo sapiens) (UniProt P68400); assay: Activity at CK2 at 3 uM
[24] = Activity at PKA at 3 uM
[25] = biological target: Mitogen-activated protein kinase 8 (Homo sapiens) (UniProt P45983); assay: Activity at JNK1 at 3 uM
[26] = Solubility at pH 7.4; assay type: physicochemical; settings: buffer
[27] = Activity at MKK1 at 3 uM
[28] = biological target: Mitogen-activated protein kinase 1 (Homo sapiens) (UniProt P28482); assay: Activity at ERK2 at 3 uM
[29] = biological target: Cyclin-dependent kinase 2/cyclin A (Homo sapiens) (UniProt P24941+P20248+P78396); assay: Activity at CDK2/cyclin A at 3 uM; assay type: protein-complex assay
[30] = biological target: Tyrosine-protein kinase BTK (Homo sapiens) (UniProt Q06187); assay: Activity at Btk at 10 uM
Chain of Tyrosine-protein kinase BTK (Homo sapiens) (Q06187 whole entry): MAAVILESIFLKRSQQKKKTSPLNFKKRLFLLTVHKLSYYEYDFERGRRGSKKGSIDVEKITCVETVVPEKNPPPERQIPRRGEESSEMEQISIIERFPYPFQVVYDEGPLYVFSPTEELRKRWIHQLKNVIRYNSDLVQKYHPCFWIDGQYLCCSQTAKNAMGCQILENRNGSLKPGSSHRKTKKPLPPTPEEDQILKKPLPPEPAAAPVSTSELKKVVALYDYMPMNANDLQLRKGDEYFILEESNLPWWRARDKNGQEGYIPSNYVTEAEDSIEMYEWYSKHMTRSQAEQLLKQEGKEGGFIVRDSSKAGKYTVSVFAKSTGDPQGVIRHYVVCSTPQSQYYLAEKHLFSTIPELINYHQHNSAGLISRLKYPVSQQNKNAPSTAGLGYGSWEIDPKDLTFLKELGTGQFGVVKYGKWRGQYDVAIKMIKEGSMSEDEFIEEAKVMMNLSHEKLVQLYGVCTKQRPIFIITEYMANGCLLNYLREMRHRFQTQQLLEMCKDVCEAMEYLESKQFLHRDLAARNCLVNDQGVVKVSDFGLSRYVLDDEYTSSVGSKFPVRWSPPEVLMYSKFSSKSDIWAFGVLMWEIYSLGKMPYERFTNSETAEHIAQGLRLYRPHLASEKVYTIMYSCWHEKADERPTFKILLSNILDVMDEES

[31] = biological target: Serine/threonine-protein kinase Chk1 (Homo sapiens) (UniProt O14757); assay: Activity at CHK1 at 3 uM
[32] = Activity at PP2A at 3 uM
[33] = biological target: Insulin receptor (Homo sapiens) (UniProt P06213); assay: Activity at IR at 10 uM
[34] = biological target: Glycogen synthase kinase-3 beta (Homo sapiens) (UniProt P49841); assay: Activity at GSK3-beta at 3 uM
[35] = biological target: Protein kinase C alpha type (Homo sapiens) (UniProt P17252); assay: Activity at PKCalpha at 3 uM
[36] = biological target: Dual specificity tyrosine-phosphorylation-regulated kinase 1A (Homo sapiens) (UniProt Q13627); assay: Activity at DYRK1A at 3 uM
[37] = biological target: MAP kinase-activated protein kinase 5 (Homo sapiens) (UniProt Q8IW41); assay: Activity at PRAK at 3 uM
[38] = biological target: MAP kinase-activated protein kinase 2 (Homo sapiens) (UniProt P49137); assay: Activity at MAPKAP-K2 at 3 uM
Chain of MAP kinase-activated protein kinase 2 (Homo sapiens) (P49137 whole entry, looked up): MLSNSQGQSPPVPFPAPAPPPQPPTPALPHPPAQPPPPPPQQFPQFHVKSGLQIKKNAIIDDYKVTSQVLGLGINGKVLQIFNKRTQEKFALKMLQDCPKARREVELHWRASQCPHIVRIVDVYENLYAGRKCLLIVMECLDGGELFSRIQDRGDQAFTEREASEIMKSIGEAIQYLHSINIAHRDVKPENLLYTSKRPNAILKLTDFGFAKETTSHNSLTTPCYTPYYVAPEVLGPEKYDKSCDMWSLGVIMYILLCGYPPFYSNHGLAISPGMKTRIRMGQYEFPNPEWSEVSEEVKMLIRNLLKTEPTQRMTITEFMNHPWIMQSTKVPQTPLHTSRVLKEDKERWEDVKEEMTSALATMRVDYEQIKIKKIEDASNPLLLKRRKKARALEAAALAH

[39] = biological target: Ephrin type-A receptor 2 (Homo sapiens) (UniProt P29317); assay: Activity at Eck at 10 uM
[40] = biological target: Hepatocyte growth factor receptor (Homo sapiens) (UniProt P08581); assay: Activity at HGFR at 10 uM
[41] = biological target: Tyrosine-protein kinase JAK3 (Homo sapiens) (UniProt P52333); assay: Activity at JAK3 at 10 uM
Chain of Tyrosine-protein kinase JAK3 (Homo sapiens) (P52333 whole entry): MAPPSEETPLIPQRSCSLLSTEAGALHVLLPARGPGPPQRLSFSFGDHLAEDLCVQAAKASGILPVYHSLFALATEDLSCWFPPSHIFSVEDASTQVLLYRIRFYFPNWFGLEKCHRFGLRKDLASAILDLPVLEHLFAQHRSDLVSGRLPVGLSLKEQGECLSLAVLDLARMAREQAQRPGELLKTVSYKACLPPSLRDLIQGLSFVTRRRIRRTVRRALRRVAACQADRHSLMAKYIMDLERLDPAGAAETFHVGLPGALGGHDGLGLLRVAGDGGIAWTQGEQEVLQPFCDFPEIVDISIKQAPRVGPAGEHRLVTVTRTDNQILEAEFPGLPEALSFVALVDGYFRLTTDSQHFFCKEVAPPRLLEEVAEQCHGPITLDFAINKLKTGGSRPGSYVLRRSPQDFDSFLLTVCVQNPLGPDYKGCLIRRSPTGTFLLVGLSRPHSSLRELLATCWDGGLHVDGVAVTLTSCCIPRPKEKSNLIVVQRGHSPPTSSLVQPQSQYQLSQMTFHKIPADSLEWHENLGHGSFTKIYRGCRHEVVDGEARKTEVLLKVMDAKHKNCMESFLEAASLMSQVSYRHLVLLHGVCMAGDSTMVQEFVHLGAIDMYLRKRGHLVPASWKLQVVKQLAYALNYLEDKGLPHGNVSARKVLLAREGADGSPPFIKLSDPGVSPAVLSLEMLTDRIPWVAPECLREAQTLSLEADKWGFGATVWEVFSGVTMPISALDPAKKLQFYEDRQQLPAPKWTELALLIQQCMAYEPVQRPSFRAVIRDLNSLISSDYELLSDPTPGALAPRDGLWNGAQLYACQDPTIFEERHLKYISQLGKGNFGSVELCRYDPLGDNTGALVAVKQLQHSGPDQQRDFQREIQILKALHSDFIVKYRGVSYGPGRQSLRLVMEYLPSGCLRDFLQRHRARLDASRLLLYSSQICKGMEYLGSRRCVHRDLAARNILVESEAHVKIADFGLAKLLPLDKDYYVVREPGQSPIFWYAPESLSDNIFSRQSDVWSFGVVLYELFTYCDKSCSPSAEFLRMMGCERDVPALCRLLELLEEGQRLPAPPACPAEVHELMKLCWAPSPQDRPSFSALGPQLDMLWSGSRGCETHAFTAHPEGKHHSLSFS

[42] = biological target: Vascular endothelial growth factor receptor 1 (Homo sapiens) (UniProt P17948); assay: Activity at VEGFR1 at 10 uM
[43] = biological target: Fibroblast growth factor receptor 3 (Homo sapiens) (UniProt P22607); assay: Activity at FGFR3 at 10 uM
[44] = Binding affinity to mitogen-activated protein kinase p38

## COc1c(NC(=O)c2ccc(C)c(N3C=C(C(=O)NCc4ccccc4)NN3)c2)cc(C(C)(C)C)cc1NS(C)(=O)=O
Blood
  IC50: 930 nM
[1]
  Tm: 59.7 °C
THP-1
  IC50: 40 nM

## COc1c(NC(=O)c2ccc(C)c(N3C=C(C(=O)NCC(C)(C)CN(C)C)NN3)c2)cc(C(C)(C)C)cc1NS(C)(=O)=O
[2]
  Activity: inactive
[3]
  IC50: 1100 nM
[4]
  Activity: inactive
[5]
  Activity: inactive
[6]
  Activity: inactive
Blood
  IC50: 83 nM
[7]
  Papp: 13 ×10⁻⁶ cm/s
[8]
  Activity: inactive
Homo sapiens
  fraction unbound: 0.34
[9]
  Activity: inactive
[10]
  Activity: inactive
[11]
  Activity: inactive
[1]
  Tm: 57.3 °C
[12]
  Activity: inactive
[13]
  Activity: inactive
[14]
  Activity: inactive
[15]
  Activity: inactive
[16]
  Activity: inactive
[17]
  Activity: inactive
[18]
  Activity: inactive
[19]
  Activity: inactive
[20]
  Activity: inactive
[21]
  Activity: inactive
[22]
  Activity: inactive
[23]
  Activity: inactive
[24]
  Activity: inactive
[25]
  Activity: inactive
[26]
  solubility: 13.9 µg/mL (≈ 22.6 µM)
[27]
  Activity: inactive
[28]
  Activity: inactive
[29]
  Activity: inactive
[30]
  Activity: inactive
[31]
  Activity: inactive
[32]
  Activity: inactive
[33]
  Activity: inactive
[34]
  Activity: inactive
[35]
  Activity: inactive
[36]
  Activity: inactive
[37]
  Activity: inactive
[38]
  Activity: inactive
[39]
  Activity: inactive
[40]
  Activity: inactive
[41]
  Activity: inactive
[42]
  Activity: inactive
THP-1
  IC50: 22 nM
[43]
  Activity: inactive

## COc1c(NC(=O)c2ccc(C)c(N3C=C(C(=O)NC(C)(C)C)NN3)c2)cc(C(C)(C)C)cc1NS(C)(=O)=O
Blood
  IC50: > 15000 nM
[1]
  Tm: 56.8 °C
THP-1
  IC50: 84 nM

## COc1c(NC(=O)c2ccc(C)c(N3C=C(C(=O)N(C)Cc4ccccc4)NN3)c2)cc(C(C)(C)C)cc1NS(C)(=O)=O
Blood
  IC50: > 15000 nM
[1]
  Tm: 57.8 °C
THP-1
  IC50: 29 nM

## COc1c(NC(=O)c2ccc(C)c(N3C=C(C(=O)NCC4CCN(C)CC4)NN3)c2)cc(C(C)(C)C)cc1NS(C)(=O)=O
Blood
  IC50: 4500 nM
[1]
  Tm: 57.5 °C
THP-1
  IC50: 200 nM

## COc1c(NC(=O)c2ccc(C)c(N3C=C(C(=O)NCC4CCCCC4)NN3)c2)cc(C(C)(C)C)cc1NS(C)(=O)=O
Blood
  IC50: 260 nM
[1]
  Tm: 56.2 °C
THP-1
  IC50: 14 nM

## Cc1ccc(-n2nc(C(C)(C)C)cc2NC(=O)Nc2ccc(OCCN3CCOCC3)c3ccccc23)cc1 [DORAMAPIMOD]
[3]
  IC50: 6 nM
[7]
  Papp: 10 ×10⁻⁶ cm/s
[1]
  Tm: 63.5 °C
[26]
  solubility: 1 µg/mL (≈ 1.9 µM)

## CCOC(=O)C1=CN(c2cc(C(=O)Nc3cc(C(C)(C)C)cc(NS(C)(=O)=O)c3OC)ccc2C)NN1
Blood
  IC50: 9000 nM
[1]
  Tm: 56.2 °C
[44]
  Kd: 8 nM
THP-1
  IC50: > 5000 nM

## COc1c(NC(=O)c2ccc(C)c(N3C=C(C(=O)N[C@H](C)C4CCCCC4)NN3)c2)cc(C(C)(C)C)cc1NS(C)(=O)=O
Blood
  IC50: 2800 nM
[1]
  Tm: 60.8 °C
THP-1
  IC50: 16 nM

## COc1c(NC(=O)c2ccc(C)c(N3C=C(C(=O)NCC(C)(C)N(C)C)NN3)c2)cc(C(C)(C)C)cc1NS(C)(=O)=O
Blood
  IC50: 790 nM
[1]
  Tm: 56.1 °C
THP-1
  IC50: 140 nM

## COc1c(NC(=O)c2ccc(C)c(N3C=C(C(=O)NCC(C)(C)O)NN3)c2)cc(C(C)(C)C)cc1NS(C)(=O)=O
Blood
  IC50: 210 nM
[7]
  Papp: 7.4 ×10⁻⁶ cm/s
Homo sapiens
  fraction unbound: 0.34
[1]
  Tm: 59.9 °C
[26]
  solubility: 2 µg/mL (≈ 3.48 µM)
THP-1
  IC50: 18 nM

## COc1c(NC(=O)c2ccc(C)c(N3C=C(C(=O)N[C@@H](C)C(C)(C)C)NN3)c2)cc(C(C)(C)C)cc1NS(C)(=O)=O
Blood
  IC50: 2600 nM
[1]
  Tm: 60 °C
THP-1
  IC50: 35 nM

## CNC(=O)C1=CN(c2cc(C(=O)Nc3cc(C(C)(C)C)cc(NS(C)(=O)=O)c3OC)ccc2C)NN1
Blood
  IC50: 8400 nM
[1]
  Tm: 57.3 °C
THP-1
  IC50: 110 nM

## COc1c(NC(=O)c2ccc(C)c(N3C=C(C(=O)N[C@@H](C)C4CCCCC4)NN3)c2)cc(C(C)(C)C)cc1NS(C)(=O)=O
Blood
  IC50: 5600 nM
[1]
  Tm: 56.9 °C
THP-1
  IC50: 66 nM

## COc1c(NC(=O)c2ccc(C)c(N3C=C(C(=O)NCc4ccncc4)NN3)c2)cc(C(C)(C)C)cc1NS(C)(=O)=O
Blood
  IC50: 720 nM
[1]
  Tm: 58.8 °C
THP-1
  IC50: 74 nM

## COc1c(NC(=O)c2ccc(C)c(N3C=C(C(=O)NC4CC4)NN3)c2)cc(C(C)(C)C)cc1NS(C)(=O)=O
Blood
  IC50: 2800 nM
[1]
  Tm: 56.6 °C
THP-1
  IC50: 110 nM

## COc1c(NC(=O)c2ccc(C)c(N3C=C(C(=O)N[C@H](C)C(C)(C)C)NN3)c2)cc(C(C)(C)C)cc1NS(C)(=O)=O
Blood
  IC50: 1000 nM
[1]
  Tm: 61.6 °C
THP-1
  IC50: 14 nM

## COc1c(NC(=O)c2ccc(C)c(N3C=C(C(=O)NCC(C)(C)C)NN3)c2)cc(C(C)(C)C)cc1NS(C)(=O)=O
Blood
  IC50: 260 nM
Homo sapiens
  fraction unbound: 0.08
[1]
  Tm: 60.5 °C
[26]
  solubility: 0.1 µg/mL (≈ 0.175 µM)
THP-1
  IC50: 14 nM

## COc1c(NC(=O)c2ccc(C)c(N3C=C(C(=O)N[C@@H](C)c4ccccc4)NN3)c2)cc(C(C)(C)C)cc1NS(C)(=O)=O
Blood
  IC50: 2600 nM
[1]
  Tm: 60.1 °C
THP-1
  IC50: 27 nM

## COc1c(NC(=O)c2ccc(C)c(N3C=C(C(=O)NCC4CCCN(C)C4)NN3)c2)cc(C(C)(C)C)cc1NS(C)(=O)=O (centres undefined)
Blood
  IC50: 300 nM
[1]
  Tm: 57.4 °C
THP-1
  IC50: 28 nM

## COc1c(NC(=O)c2ccc(C)c(N3C=C(C(=O)NCc4cccnc4)NN3)c2)cc(C(C)(C)C)cc1NS(C)(=O)=O
Blood
  IC50: 270 nM
[1]
  Tm: 57.9 °C
THP-1
  IC50: 38 nM

## COc1c(NC(=O)c2ccc(C)c(N3C=C(C(=O)N[C@H](CN(C)C)c4ccccc4)NN3)c2)cc(C(C)(C)C)cc1NS(C)(=O)=O
Blood
  IC50: 500 nM
[1]
  Tm: 65.1 °C
THP-1
  IC50: 35 nM

## COc1c(NC(=O)c2ccc(C)c(N3C=C(C(=O)N[C@H](C)c4ccccc4)NN3)c2)cc(C(C)(C)C)cc1NS(C)(=O)=O
Blood
  IC50: 470 nM
[1]
  Tm: 64.6 °C
THP-1
  IC50: 13 nM
